The record followed here is US10568876B2, “Tetrahydroisoquinoline derivatives useful as inhibitors of diacylglyceride O-acyltransferase 2” (Merck Sharp & Dohme Corp., priority 2014, dated 2020).

Each structure is given as a SMILES string.

hDGAT2, sequence (Q96PD7 whole entry): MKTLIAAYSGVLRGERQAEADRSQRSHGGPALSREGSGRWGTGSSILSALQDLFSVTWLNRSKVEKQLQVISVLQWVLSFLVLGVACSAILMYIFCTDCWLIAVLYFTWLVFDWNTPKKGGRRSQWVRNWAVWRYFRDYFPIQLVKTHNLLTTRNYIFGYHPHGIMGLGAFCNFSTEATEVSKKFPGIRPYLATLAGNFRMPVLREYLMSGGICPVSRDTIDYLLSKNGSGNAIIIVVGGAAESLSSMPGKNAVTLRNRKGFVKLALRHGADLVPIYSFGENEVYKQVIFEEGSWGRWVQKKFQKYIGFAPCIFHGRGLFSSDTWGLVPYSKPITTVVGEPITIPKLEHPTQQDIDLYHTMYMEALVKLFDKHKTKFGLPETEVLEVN

This assay deals with hDGAT2 (Homo sapiens (Human), UniProt Q96PD7). Kind of assay: DGAT2 Enzymatic Activity Assay. Conditions: hDGAT2 Sf-9 membrane prep; 25 μM diolein, 10 μM oleoyl-CoA; triolein product by LC/MS/MS; read-out: IC50 values for inhibition of DGAT2. It is filed as biochemical. The procedure:
Sf-9 insect cells were maintained in Grace's insect cell culture medium with 10% heated-inactivated fetal bovine serum, 1% Pluronic F-68 and 0.14 μg/ml Kanamycine sulfate in Erlenmeyer flasks at 28° C. in a shaker incubator. After infection with untagged hDGAT2 baculovirus at multiplicity of infection (MOI) 0.1 for 48 hours, cells were harvested. Cell pellets were suspended in buffer containing 10 mM Tris-HCl (pH 7.5), 1 mM EDTA (pH 8.0), 250 mM sucrose and Complete Protease Inhibitor Cocktail (Roche Diagnostics Corp., Indianapolis, Ill.), and sonicated on ice. Membrane fractions were isolated by ultracentrifugation (100,000×g pellet), resuspended in the same buffer, and frozen (−80° C.) for later use. The protein concentration was determined with the BCA Protein Assay kit (Pierce Biotechnology Inc., Rockford, Ill.). Expression of protein levels was analyzed by immunoblotting with goat polyclonal DGAT2 antibody C-15 and donkey anti-goat IgG HRP (Santa Cruz Biotechnology, Inc., Santa Cruz, Calif.) followed by detection with ECL reagent (GE Healthcare, Piscataway, N.J.).
LC/MS/MS analyses were performed using Thermal Fisher's LX4-TSQ Vantage system. This system consists of an Agilent binary high-performance liquid chromatography (HPLC) pumps and a TSQ Vantage triple quadrupole MS/MS instrument. For each sample, 2 μL, samples from the top organic layer of in-plate liquid-liquid extraction were injected onto a Thermo Betabasic C4 column (2.1 mm×20 mm, 5 μm particle size). The samples were then eluted using the following conditions; mobile phase: methanol/water with 0.1% ammonium format=92/8 (v/v), flow rate: 1 mL/min, temperature: 25 C. Data was acquired in positive mode using a heated electrospray ionization (HESI) interface. The operational parameters for the TSQ Vantage MS/MS instrument were a spray voltage of 3000 V, capillary temperature of 280° C., vaporizer temperature 400° C., shealth gas 60 arbitrary unit, Aux gas 40 arbitrary units, S-lens 113 and collision gas 0.16 Pascals. […] (SRM) chromatograms of triolein (Q1: 902.9>Q3: 602.3) and internal standard (Q1: 902.9>Q3: 602.3) were collected for 40 sec. The peak area was integrated by Xcalibur Quan software. The ratio between the triolein generated in the reaction and spiked in internal standard were used to generate percentage inhibition and IC50 values. Compound percentage inhibition was calculated by the following formula: Inhibition %=1-[(compound response low control)/(high control low control)]×100%. Potent compounds were titrated and IC50 were calculated by 4 parameter sigmoidal curve fitting formula.
DGAT2 activity was determined by measuring the amount of enzymatic product triolein (1,2,3-Tri(cis-9-octadecenoyl)glycerol) using the membrane prep mentioned above. The assay was carried out in deep well 384 plates in a final volume of 40 μL at room temperature. The assay mixture contained the following: assay buffer (100 mM Tris.Cl, pH 7.0, 20 mM MgCl2, 5% ethanol), 25 μM of diolein, 10 μM of oleoyl-CoA and 10 ng/μL of DGAT2 membrane.
Turning to `Cc1noc([C@@H]2C[C@H]2C(=O)NCc2ccc(-c3cccc(C(F)(F)F)c3)c3c2CN(C(=O)Nc2ccon2)CC3)n1` (relative stereo) [Example 26, N-(isoxazol-3-yl)-8-(((trans)-2-(3-methyl-1,2,4-oxadiazol-5-yl)cyclopropanecarboxamido)methyl)-5-(3-(trifluoromethyl)phenyl)-3,4-dihydroisoquinoline-2(1H)-carboxamide], the IC50 turned out to be 126 nM. On to `Cc1noc2ccc(-c3ccc(CNC(=O)[C@@H]4C[C@H]4c4ccccc4)c4c3CCN(C(=O)NC(C)(C)C)C4)cc12` (relative stereo) [Example 27, N-(tert-butyl)-5-(3-methylbenzo[d]isoxazol-5-yl)-8-(((trans)-2-phenylcyclopropanecarboxamido)methyl)-3,4-dihydroisoquinoline-2(1H)-carboxamide], for which the IC50 amounted to 59.8 nM. As for `CC(C)(C)NC(=O)N1CCc2c(-c3ccc4ncnn4c3)ccc(CNC(=O)[C@@H]3C[C@H]3c3ccccc3)c2C1` (relative stereo) [Example 29, 5-([1,2,4]triazolo[1,5-a]pyridin-6-yl)-N-(tert-butyl)-8-(((trans)-2-phenylcyclopropanecarboxamido)methyl)-3,4-dihydroisoquinoline-2(1H)-carboxamide], the half-inhibitory concentration (IC50) was determined as 4640 nM.

With `Cn1nccc1-c1ccc(CNC(=O)[C@@H]2C[C@H]2c2ccccc2)c2c1CCN(C(=O)NC(C)(C)C)C2` (relative stereo) [Example 30, N-(tert-butyl)-5-(1-methyl-1H-pyrazol-5-yl)-8-(((trans)-2-phenylcyclopropanecarboxamido)methyl)-3,4-dihydroisoquinoline-2(1H)-carboxamide], the IC50 was 1170 nM.

Regarding `Cc1cc(C)n(-c2cccc(-c3ccc(CNC(=O)[C@@H]4C[C@H]4c4ccccc4)c4c3CCN(C(=O)NC(C)(C)C)C4)c2)n1` (relative stereo) [Example 31, N-(tert-butyl)-5-(3-(3,5-dimethyl-1H-pyrazol-1-yl)phenyl)-8-(((trans)-2-phenylcyclopropanecarboxamido)methyl)-3,4-dihydroisoquinoline-2(1H)-carboxamide], the IC50 is 6090 nM. Under `CC(C)(C)NC(=O)N1CCc2c(-c3ccnc4[nH]ccc34)ccc(CNC(=O)[C@@H]3C[C@H]3c3ccccc3)c2C1` (relative stereo) [Example 32, N-(tert-butyl)-8-(((trans)-2-phenylcyclopropanecarboxamido)methyl)-5-(1H-pyrrolo[2,3-b]pyridin-4-yl)-3,4-dihydroisoquinoline-2(1H)-carboxamide] stands 1460 nM; under `Cn1nnc2ccc(-c3ccc(CNC(=O)[C@@H]4C[C@H]4c4ccccc4)c4c3CCN(C(=O)NC(C)(C)C)C4)cc21` (relative stereo) [Example 33, N-(tert-butyl)-5-(1-methyl-1H-benzo[d][1,2,3]triazol-6-yl)-8-(((trans)-2-phenylcyclopropanecarboxamido)methyl)-3,4-dihydroisoquinoline-2(1H)-carboxamide], 2860 nM. Under `CC(C)(C)NC(=O)N1CCc2c(-c3cccc(-n4cccn4)c3)ccc(CNC(=O)[C@@H]3C[C@H]3c3ccccc3)c2C1` (relative stereo) [Example 34, 5-(3-(1H-pyrazol-1-yl)phenyl)-N-(tert-butyl)-8-(((trans)-2-phenylcyclopropanecarboxamido)methyl)-3,4-dihydroisoquinoline-2(1H)-carboxamide] stands 11.6 nM; under `CC(C)(C)NC(=O)N1CCc2c(-c3cnn(-c4ccccc4)c3)ccc(CNC(=O)[C@@H]3C[C@H]3c3ccccc3)c2C1` (relative stereo) [Example 35, N-(tert-butyl)-5-(1-phenyl-1H-pyrazol-4-yl)-8-(((trans)-2-phenylcyclopropanecarboxamido)methyl)-3,4-dihydroisoquinoline-2(1H)-carboxamide], 1170 nM; under `CC(=O)Nc1cccc(-c2ccc(CNC(=O)[C@@H]3C[C@H]3c3ccccc3)c3c2CCN(C(=O)NC(C)(C)C)C3)c1` (relative stereo) [Example 36, 5-(3-acetamidophenyl)-N-(tert-butyl)-8-(((trans)-2-phenylcyclopropanecarboxamido)methyl)-3,4-dihydroisoquinoline-2(1H)-carboxamide], 352 nM.

On to `CC(C)Cn1cc(-c2ccc(CNC(=O)[C@@H]3C[C@H]3c3ccccc3)c3c2CCN(C(=O)NC(C)(C)C)C3)cn1` (relative stereo) [Example 37, N-(tert-butyl)-5-(1-isobutyl-1H-pyrazol-4-yl)-8-(((trans)-2-phenylcyclopropanecarboxamido)methyl)-3,4-dihydroisoquinoline-2(1H)-carboxamide], for which the IC50 stood at 95.6 nM. Under `CC(C)(C)NC(=O)N1CCc2c(-c3cccc(C(=O)NC4CC4)c3)ccc(CNC(=O)[C@@H]3C[C@H]3c3ccccc3)c2C1` (relative stereo) [Example 38, N-(tert-butyl)-5-(3-(cyclopropylcarbamoyl)phenyl)-8-(((trans)-2-phenylcyclopropanecarboxamido)methyl)-3,4-dihydroisoquinoline-2(1H)-carboxamide] stands 1430 nM; under `CC(C)(C)NC(=O)N1CCc2c(-c3cccc(NS(C)(=O)=O)c3)ccc(CNC(=O)[C@@H]3C[C@H]3c3ccccc3)c2C1` (relative stereo) [Example 39, N-(tert-butyl)-5-(3-(methylsulfonamido)phenyl)-8-(((trans)-2-phenylcyclopropanecarboxamido)methyl)-3,4-dihydroisoquinoline-2(1H)-carboxamide], 832 nM. With `CC(C)(C)NC(=O)N1CCc2c(-c3cnn(Cc4ccccc4)c3)ccc(CNC(=O)[C@@H]3C[C@H]3c3ccccc3)c2C1` (relative stereo) [Example 40, 5-(1-benzyl-1H-pyrazol-4-yl)-N-(tert-butyl)-8-(((trans)-2-phenylcyclopropanecarboxamido)methyl)-3,4-dihydroisoquinoline-2(1H)-carboxamide], the IC50 came out at 4790 nM. On to `Cc1noc(C)c1-c1ccc(CNC(=O)[C@@H]2C[C@H]2c2ccccc2)c2c1CCN(C(=O)NC(C)(C)C)C2` (relative stereo) [Example 41, N-(tert-butyl)-5-(3,5-dimethylisoxazol-4-yl)-8-(((trans)-2-phenylcyclopropanecarboxamido)methyl)-3,4-dihydroisoquinoline-2(1H)-carboxamide], for which the IC50 was determined as 1440 nM. The value for `CC(C)(C)NC(=O)N1CCc2c(-c3cccc(C(N)=O)c3)ccc(CNC(=O)[C@@H]3C[C@H]3c3ccccc3)c2C1` (relative stereo) [Example 42, N-(tert-butyl)-5-(3-carbamoylphenyl)-8-(((trans)-2-phenylcyclopropanecarboxamido)methyl)-3,4-dihydroisoquinoline-2(1H)-carboxamide] was 155 nM; that for `CC(C)(C)NC(=O)N1CCc2c(-c3ccn4ncnc4c3)ccc(CNC(=O)[C@@H]3C[C@H]3c3ccccc3)c2C1` (relative stereo) [Example 43, 5-([1,2,4]triazolo[1,5-a]pyridin-7-yl)-N-(tert-butyl)-8-(((trans)-2-phenylcyclopropanecarboxamido)methyl)-3,4-dihydroisoquinoline-2(1H)-carboxamide] was 3130 nM; that for `CC(C)(C)NC(=O)N1CCc2c(-c3cccc4c3CNC4=O)ccc(CNC(=O)[C@@H]3C[C@H]3c3ccccc3)c2C1` (relative stereo) [Example 44, N-(tert-butyl)-5-(1-oxoisoindolin-4-yl)-8-(((trans)-2-phenylcyclopropanecarboxamido)methyl)-3,4-dihydroisoquinoline-2(1H)-carboxamide] was 7480 nM. The value for `CC(C)(C)NC(=O)N1CCc2c(-c3ccc4c(c3)CNC4=O)ccc(CNC(=O)[C@@H]3C[C@H]3c3ccccc3)c2C1` (relative stereo) [Example 45, N-(tert-butyl)-5-(1-oxoisoindolin-5-yl)-8-(((trans)-2-phenylcyclopropanecarboxamido)methyl)-3,4-dihydroisoquinoline-2(1H)-carboxamide] was 2650 nM.

As a reminder, the IC50 is the concentration needed to halve the response being measured.
